Data taken from patent publication US9040691B2, “Hydroxymethylaryl-substituted pyrrolotriazines as ALK1 inhibitors” (BAYER INTELLECTUAL PROPERTY GMBH, priority 2011, dated 2015).

Columns and labels:
ALK1 kinase [1] = molecular target: T1, ALK1 kinase (Homo sapiens (Human), UniProt P37023); experiment: ALK1 kinase assay (ProQinase protocol); format: biochemical; conditions: ProQinase radiometric assay, casein, γ-33P-ATP
Experimental: B-1b. ALK1 Kinase Assay (ProQinase Protocol)
ALK1 (Invitrogen, Carlsbad, Calif., USA) kinase activity was measured at ProQinase GmbH (Freiburg, Germany) in a radiometric assay using γ-^33P-ATP and casein (Sigma, St. Louis, Mo., USA) as substrate in 96-well PerkinElmer FlashPlates™ (Boston, Mass., USA). The compounds were tested at 10 concentrations in the range of 1×10^−4 M to 3×10^−9 M in a total volume of 50 μl with a final DMSO concentration of 1% each. The assay components were mixed in the order: • 20 μl assay buffer (70 mM HEPES-NaOH, pH 7.5, 3 mM MgCl2, 3 mM MnCl2, 2 μM sodium orthovanadate, 1.2 mM DTT); • 5 μl γ-^33P-ATP (1.0 μM in water, approx. 6×10^5 cpm per well); • 5 μl test compound solution (in 10% DMSO); • […] (200 μg/ml, 1.0 μg/50 μl final concentration)/enzyme (4 μg/ml, 20 ng/50 μl=5.5 nM final concentration) solution (1:1 mixture).
The reaction mixtures were incubated at 30° C. for 60 minutes and stopped by adding 50 μl 2% (v/v) phosphoric acid. The plates were aspirated and washed twice with 200 μl 0.9% (w/v) sodium chloride. Incorporation of ^33Pi was determined with a microplate scintillation counter (Microbeta, Wallac). All assays were performed using a BecicmanCoulter/SAGIAN™ Core System.
Median values obtained from unspecific substrate binding of labelled. ATP were set as background level, while median values measured in the absence of any inhibitor were considered to reflect full activity of ALK1 kinase. The background activity (ba) was subtracted from the full activity (fa) value as well as from the values obtained from the test compound containing samples (test compound activity, tea). The residual activity in the latter was calculated as follows: residual activity (%)=100×[(tca−ba)/(fa−ba)]
The residual activities for each concentration and the compound IC50 values were calculated using Quattro Workflow V3.1.0 (Quattro Research GmbH, Munich, Germany). The fitting model for the IC50 determinations was “Sigmoidal response (variable slope)” with parameters “top” fixed at 100% and “bottom” at 0%. The fitting method used was a least-squares fit.

[2] = tested on: hSmad7 mRNA in BMP9-stimulated HUVEC; experiment: Smad7 target gene induction: HUVEC cell assay and TaqMan expression analysis; format: cell-based, human; conditions: Homo sapiens, 3 h, 1 ng/ml BMP9 for 3 h, Smad7 mRNA by TaqMan
Experimental: B-2b. Smad7 Target Gene Induction: HUVEC Cell Assay and TaqMan Expression Analysis
The in vitro potency of ALK1 inhibitors was tested in a cell-based assay. Bone morphogenetic protein 9 (BMP9) induces Smad7 mRNA expression in human vascular endothelial cells (HUVEC) via activation of ALK1.
1.5×10^4 passage 2 HUVECs (Lonza, Basel, Switzerland) per well were seeded in a 96-well plate in EBM-2 medium containing EGM-2 additives and growth factors (Lonza, CC-3156 and CC-4176). After 4 h, the medium was changed to EBM-2 with 0.2% fetal calf serum (FCS) and the cells were starved for 20 h in a humidified incubator at 37° C., 5% CO2. Test compounds were added at 11 different concentrations between 0 and 10 000 nM one hour prior to stimulation of the cells for 3 h with recombinant human BMP9 protein at 1 ng/ml (dissolved in 4 mM hydrochloric acid, 0.1% BSA at 10 μg/ml; R&D Systems, Minneapolis, Minn., USA, 3209BP). Medium was removed, and the cells were lysed in 100 μl RLT buffer (Qiagen, Hilden, Germany). RNA was isolated using the Qiagen RNeasy 96 Kit (order-No. 74182) according to manufacturer's instructions and eluted from the columns with 65 μl RNAse-free water. Reverse transcription for quantitative RT-PCR was carried out with the Omniscript Kit (Qiagen, 205113) in RNAse-free 96-well round-bottom plates. Per well, 6.8 μl of a reaction master mix containing 2 μl 10×RT-buffer, 2 μl dNTPs (5 mM each), 1.6 μl random primer N6 (125 μM), 0.25 μl Rnase Out (40 U/μl) and 1 μl Omniscript Reverse Transcriptase were added. After addition of 13.2 μl of the RNA/water mixture, plate contents were mixed, incubated for 1 h at 37° C. and the total volume adjusted to 100 μl in each well by addition of 80 μl RNAse-free water.
The quantification of human Smad7 mRNA was carried out on a TaqMan using the Eurogentec qPCR Mastermix Plus (RT-QP2X-03-075+; Cologne, Germany) and employing human L32 as housekeeping reference mRNA. Per qPCR reaction, 2.8 μl primer mix, 10 μl master mix, 2.2 μl water and 5 μl cDNA were added. Thermal cycling parameters were 2 min at 50° C., followed by 10 min at 95° C., followed by 40 cycles of melting at 95° C. for 15 sec and annealing/extending at 60° C. for 1 min.
Smad7 mRNA levels induced by 1 ng/ml BMP9 without the addition of any inhibitor were set at 100% induction, and % inhibition was calculated for each test compound with this value. For each test compound, every value was determined in quadruplicate. The IC50 values were determined using Microsoft Excel. The fitting method used was a weighted, unconstrained ML-fit.

ALK1 kinase [3] = molecular target: T1, ALK1 kinase; experiment: In vitro enzyme inhibition using scintillation of incorporated radio label (flashplate assay); format: biochemical; conditions: biotinylated α-casein, 33P-ATP, 500 nM ATP
Experimental: B-1a. In Vitro Enzyme Inhibition Using Scintillation of Incorporated Radio Label (Flashplate Assay)
Test compounds diluted in DMSO are mixed with a suitable substrate/co-substrate (here: biotinylated α-casein and ^33P-ATP) in a corresponding assay buffer. Addition of the enzyme of interest (here: ALK1 kinase) starts the enzyme reaction. The enzyme-catalyzed incorporation of radio label into the substrate is measured via scintillation. Incorporated radio label is separated from free radio label via specific binding of the biotinylated substrate to strepavidin-coated microtiter plates (flashplates) and concomitant washing steps. The scintillation signal intensity (counts per minutes, cpm) is proportional to the enzyme activity. Enzyme inhibition results in a decreased signal intensity. IC50 values of the test compounds are determined by cpm-versus-[I] plots.
Reaction buffer contains 50 mM Tris pH 8.0 (Sigma), 1 mM MnCl2 (Sigma), 0.01% Nonidet P40 (Fluka), 0.5× Complete EDTA-free protease inhibitors (Roche; contains a mixture of several protease inhibitors for the inhibition of serine and cysteine (but not metallo-) proteases; 1 tablet contains protease inhibitors sufficient for a 50 ml cell extract; the concentration used in this assay corresponds to 1 tablet in 100 ml).
• 1.) Stop solution: Dulbecco's PBS (PAA, Pasching, Austria), 25 mM EDTA (Sigma), 25 μM ATP (Roche), 0.05% Triton X-100 (Sigma); • 2.) Saturation buffer: Dulbecco's PBS (PAA, Pasching, Austria), 100 μM ATP (Roche), 0.2% Triton X-100 (Sigma); • 3.) Wash buffer: Dulbecco's PBS (PAA, Pasching, Austria). Enzyme Solution:
ALK1 (Invitrogen, Paisley, United Kingdom) stock solution (35.7 ng/μl) is diluted to 4 ng/μl; final concentration in the reaction is 1 ng/μl.
Dephosphorylated α-casein (Sigma) is biotinylated according to the manufacturer's protocol (Pierce, Bonn, Germany) resulting in a stock solution of 61.6 μM. Briefly, EZ-Link® Biotin reagent (sulfosuccinimidyl-6-(biotinamido)hexanoate; Pierce, Bonn, Germany) is added in equal molarity to α-casein and incubated on ice for 2 h. Afterwards, the biotin reagent is removed by dialysis (2×2 h and overnight).
A 100 mM solution of cold (unlabelled) ATP (Roche) is diluted 1:100 before each test. For the substrate mix, α-casein is diluted to 2.22 μM resulting in a final concentration of 1 μM α-casein in the reaction. Additionally, cold ATP is added to give a 1.11 μM solution which results in a final concentration of 500 nM in the reaction.
Radioactive ATP Solution:
The stock solution (9.25 MBq/25 μl of ^33P-ATP; Perkin Elmer, Rodgau, Germany) is diluted to 651.2 Bq/μl.
Compounds are dissolved in 100% DMSO (10 mM stock solution) and diluted to 2 mM. Further dilutions are made stepwise 1:3.16 in DMSO.
A volume of 9 μl substrate solution is provided into each well of a 384 well microliter plate (Greiner Bio-One, Solingen, Germany), 1 μl compound solution and 5 μl of the radioactive ATP solution are added. Enzyme reaction starts with addition of 5 μl of enzyme solution. The mixture is incubated for 60 minutes at room temperature and then stopped by addition of 10 μl stop solution. The 384 well microliter flashplates (Perkin Elmer, Rodgau, Germany) are saturated with 50 μl saturation buffer per well for at least 60 minutes. Subsequently, a volume of 20 μl is discarded and replaced with 20 μl of the stopped ALK1 reaction mixture. Binding of biotinylated substrate to the flashplate is allowed for by overnight incubation at room temperature. Bound substrate is separated from unbound components through repeated washing steps (3×50 μl washing buffer per well). Finally, 50 μl washing buffer is added, and the scintillation signal (cpm) is measured in a suitable counter (Perkin Elmer, Rodgau, Germany).

T1 sequence (P37023 22-503): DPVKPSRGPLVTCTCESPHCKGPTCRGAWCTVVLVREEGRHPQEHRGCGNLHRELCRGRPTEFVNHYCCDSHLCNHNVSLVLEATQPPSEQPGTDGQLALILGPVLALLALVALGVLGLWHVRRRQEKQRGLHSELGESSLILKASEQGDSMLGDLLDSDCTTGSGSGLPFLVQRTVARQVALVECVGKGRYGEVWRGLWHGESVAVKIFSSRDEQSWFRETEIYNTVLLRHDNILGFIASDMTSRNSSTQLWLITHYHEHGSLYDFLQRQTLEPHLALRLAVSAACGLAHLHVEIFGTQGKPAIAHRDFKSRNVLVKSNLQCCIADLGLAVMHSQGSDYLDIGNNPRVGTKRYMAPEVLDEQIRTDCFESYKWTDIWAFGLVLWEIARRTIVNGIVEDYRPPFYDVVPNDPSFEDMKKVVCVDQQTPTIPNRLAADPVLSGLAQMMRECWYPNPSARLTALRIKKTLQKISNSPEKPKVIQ

IC50 (ALK1 kinase [1]) | IC50 (ALK1 kinase [3]) | Compound | IC50 [2]
5.7 nM |  | CCc1cc(-c2cc(C(O)C3CC3)n3ncnc(N)c23)cc(F)c1CO (racemic) [Example 39, rac-{4-Amino-5-[3-ethyl-5-fluoro-4-(hydroxymethyl)phenyl]pyrrolo[2,1-f][1,2,4]triazin-7-yl}-(cyclopropyl)methanol] | 500 nM
124 nM | 170 nM | CCc1cc(-c2cc([C@H]3CC[C@H](O)CC3)n3ncnc(N)c23)cc(F)c1CO [Example 28, trans-4-{4-Amino-5-[3-ethyl-5-fluoro-4-(hydroxymethyl)phenyl]pyrrolo[2,1-f][1,2,4]triazin-7-yl}-cyclohexanol] | 
4 nM |  | CCc1cc(-c2cc(C3CCCNC3)n3ncnc(N)c23)cc(F)c1CO (racemic) [Example 38, rac-{4-[4-Amino-7-(piperidin-3-yl)pyrrolo[2,1-f][1,2,4]triazin-5-yl]-2-ethyl-6-fluorophenyl}-methanol] | 
< 3 nM |  | CCc1cc(-c2cc(C3CCNC3)n3ncnc(N)c23)cc(F)c1CO (racemic) [Example 37, rac-{4-[4-Amino-7-(pyrrolidin-3-yl)pyrrolo[2,1-f][1,2,4]triazin-5-yl]-2-ethyl-6-fluorophenyl}-methanol] | 330 nM
